Target: μ-opioid receptor (Homo sapiens (Human), UniProt P35372)
Assay: μ-opioid receptor [35S]GTPγS functional assay, U-2 OS cells
Assay type: biochemical
Details: for EC50: GTPγS; for Emax: relative to DAMGO
Protocol: μ-Opioid Receptor Functional Assay Procedures: [^35S]GTPγS functional assays were conducted using freshly thawed μ-receptor membranes prepared in-house from a cell line expressing recombinant μ opioid receptor in a HEK-293, CHO or U-2 OS cell background, or purchased from a commercial source (Perkin Elmer, Shelton, Conn.; or DiscovRx, Fremont, Calif.). Assay reactions were prepared by sequentially adding the following reagents to binding buffer (100 mM NaCl, 10 mM MgCl2, 20 mM HEPES, pH 7.4) on ice (final concentrations indicated): membrane protein (0.026 mg/mL), saponin ([…]), GDP ([…]) and [^35S]GTPγS (0.20 nM; Perkin Elmer, Shelton, Conn.). The prepared membrane solution (190 μl/well) was transferred to 96-shallow well polypropylene plates containing 10 μl of 20× concentrated stock solutions of the agonist [D-Ala^2, N-methyl-Phe^4 Gly-ol^5]-enkephalin (DAMGO) prepared in dimethyl sulfoxide (DMSO). Plates were incubated for 30 min at about 25° C. with shaking. Reactions were terminated by rapid filtration onto 96-well Unifilter GF/B filter plates (Perkin Elmer, Shelton, Conn.) using a 96-well tissue harvester (Perkin Elmer, Shelton, Conn.) followed by three filtration washes with 200 μl of ice-cold wash buffer (10 mM NaH2PO4, 10 mM Na2HPO4, pH 7.4). Filter plates were subsequently dried at 50° C. for 2-3 hours. BetaScint scintillation cocktail (Perkin Elmer, Shelton, Conn.) was added (50 μl/well) and plates were counted using a Packard Top-Count for 1 min/well. Data were analyzed using the sigmoidal dose-response curve fitting functions in GraphPad PRISM v. 3.0, or an in-house function for non-linear, sigmoidal dose-response curve-fitting.
μ-Opioid Receptor Functional Data: μ GTP EC50 is the concentration of a compound providing 50% of the maximal response for the compound at a μ-opioid receptor.
μ GTP Emax (%) is the maximal effect elicited by a compound relative to the effect elicited by DAMGO, a standard μ agonist. Generally, the μ GTP Emax (%) value measures the efficacy of a compound to treat or prevent pain or other Conditions.
The following TABLE 3 provides results on the activity response of certain Compounds of the Invention at the μ- and κ-opioid receptors determined as described above using U-2 OS cells.

Row | SMILES | EC50 [nM] | Emax [%]
1 | O=C1C[C@]23CCN(CC4CC4)[C@H](Cc4ccc(O)cc42)[C@@H]3CN1 [Compound 7, (4aS,5R,10bS)-13-(cyclopropylmethyl)-9-hydroxy-4,4-a,5,6-tetrahydro-1H-5,10b-(epiminoethano)benzo[f]isoquinolin-2(3H)-one] | 3.43 ± 0.43 | 40.7 ± 3.18
2 | NC(=O)CN1C[C@H]2[C@H]3Cc4ccc(O)cc4[C@@]2(CCN3CC2CC2)CC1=O [Compound 4, 2-((4aS,5R,10bS)— 13-(cyclopropylmethyl)-9-hydroxy-2-oxo-4,4-a,5,6-tetrahydro-1H-5,10b-(epiminoethano)benzo[f]isoquinolin-3(2H)-yl)acetamide] | 7.05 ± 0.17 | 39 ± 3.51

— US8937084B2, “Nitrogen containing morphinan derivatives and the use thereof” (Purdue Pharma L.P., priority 2012, dated 2015)
